These results are taken from ChEMBL document CHEMBL4007424, “Design and Synthesis of Enantiomerically Pure Decahydroquinoxalines as Potent and Selective κ-Opioid Receptor Agonists with Anti-Inflammatory Activity in Vivo” (J Med Chem, 2017).

Active and inactive are the calls of the source. No cut-off for these calls is given here.

Data set [1] can be described thus: Displacement of [3H]-DTG from sigma 2 receptor in rat liver membranes after 120 mins by scintillation counting. The data set is classed as cell membranes, Membrane. On the technique in general: In a radioligand displacement assay an active substance lowers the binding of a labelled ligand.
In data set [2] the test system is Mus musculus. Put plainly: Antiinflammatory activity in arachidonic acid-induced ear dermatitis ICR mouse model assessed as reduction in ear swelling at 0.1 mg administered twice tropically 30 mins prior and 15 mins after arachidonic acid addition measured 60 mins post arachidonic acid challenge relative to control. The data set is classed as functional.
Data set [3] deals with Mus musculus. Put plainly: Antiinflammatory activity in arachidonic acid-induced ear dermatitis ICR mouse model assessed as reduction in ear swelling at 0.3 mg administered twice tropically 30 mins prior and 15 mins after arachidonic acid addition measured 60 mins post arachidonic acid challenge relative to control. Type of data set: functional.
Data set [4] relates to Mus musculus. Description: Antiinflammatory activity in arachidonic acid-induced ear dermatitis ICR mouse model assessed as reduction in ear swelling at 1 mg administered twice tropically 30 mins prior and 15 mins after arachidonic acid addition measured 60 mins post arachidonic acid challenge relative to control. Type of data set: functional.
Data set [5] relates to Mus musculus. Description: Antiinflammatory activity in arachidonic acid-induced ear dermatitis ICR mouse model assessed as reduction in ear swelling at 3 mg administered twice tropically 30 mins prior and 15 mins after arachidonic acid addition measured 60 mins post arachidonic acid challenge relative to control. Type of data set: functional.
The subject of data set [6] is Mus musculus. Description: Antiinflammatory activity in oxazolone-induced delayed type hypersensitivity BALB/c mouse model assessed as ear weight at 0.5 mg applied topically on ear administered 3 hrs prior to oxazolone challenge on day 7 to 12 post sensitization followed by re-administration of compound on day 13 to 18 without oxazolone challenge measured on day 19 (reference value: 30.2 +/- 0.7 mg). Type of data set: functional.

For data set [7], the system named is Mus musculus. Description: Antiinflammatory activity in oxazolone-induced delayed type hypersensitivity BALB/c mouse model assessed as ear weight at 2.5 mg applied topically on ear administered 3 hrs prior to oxazolone challenge on day 7 to 12 post sensitization followed by re-administration of compound on day 13 to 18 without oxazolone challenge measured on day 19 (reference value: 30.2 +/- 0.7 mg). Type of data set: functional.

In data set [8] the test system is Mus musculus. Put plainly: Antinociceptive activity in sc dosed mouse model of acetic acid-induced writhing. The data set is classed as functional. (An intraperitoneal irritant provokes the stretching counted in writhing tests.)
Data set [9] deals with Mus musculus. Description: CNS toxicity in sc dosed mouse model of acetic acid-induced writhing assessed as lowest dose causing side effects. The following applies: in vivo. Type of data set: organism-based.
Data set [10] is described as follows: Plasma concentration in Wistar Han rat at 1 mg/kg, iv measured 0.25 hrs post compound administration. Type of data set: ADME, organism-based.
The nature of data set [11]: Plasma concentration in Wistar Han rat at 5 mg/kg, iv measured 0.25 hrs post compound administration. Type of data set: ADME, organism-based.
A short description of data set [12]: Plasma concentration in Wistar Han rat at 1 mg/kg, iv measured 1 hr post compound administration. The data set is classed as ADME, organism-based.
Data set [13] in a line: Plasma concentration in Wistar Han rat at 5 mg/kg, iv measured 1 hr post compound administration. The data set is classed as ADME, organism-based.
For data set [14], the system named is Brain. Put plainly: (§1) Drug level in Wistar Han rat brain at 1 mg/kg, iv measured 1 hr post compound administration. Type of data set: ADME, organism-based. The following applies: in vivo, 1 h, BLD = below limit of detection.
Data set [15] is described as follows: Drug level in Wistar Han rat brain at 5 mg/kg, iv measured 1 hr post compound administration. The data set is classed as ADME, organism-based. The following applies: read-out: Drug uptake.
The nature of data set [16]: Ratio of drug level in brain to plasma in Wistar Han rat at 5 mg/kg, iv after 1 hr. The data set is classed as ADME, organism-based. The following applies: read-out: BPR.
Data set [17] has as its system Rattus norvegicus. Put plainly: Toxicity in Wistar Han rat assessed as clinical signs changes at 1 mg/kg, iv after 1 hr. Type of data set: organism-based. Conditions: in vivo.
Data set [18] concerns Rattus norvegicus. Put plainly: Toxicity in Wistar Han rat assessed as assessed as clinical signs changes at 5 mg/kg, iv after 1 hr. Type of data set: organism-based. Conditions: in vivo.
The species named for data set [19] is Sus scrofa. Description: Displacement of [3H]-(+)-MK 801 from PCP binding site of NMDA receptor in pig brain cortex membranes at 10 uM after 120 mins by solid scintillation counting. Type of data set: cell membranes.
Data set [20] relates to Mus musculus. Put plainly: Antiinflammatory activity in tropically applied arachidonic acid-induced ear dermatitis ICR mouse model assessed as reduction in ear swelling administered 30 mins prior and 15 mins after arachidonic acid addition measured 60 mins post arachidonic acid challenge. Type of data set: functional.
The subject of data set [21] is Mus musculus. Put plainly: Antiinflammatory activity in oxazolone-induced delayed type hypersensitivity BALB/c mouse model assessed as ear thickness at 0.5 mg applied topically on ear administered 3 hrs prior to oxazolone challenge on day 7 to 12 post sensitization followed by re-administration of compound on day 13 to 18 without oxazolone challenge measured on day 9 to 15. Type of data set: functional.

Data set [22] relates to Mus musculus. Put plainly: Antiinflammatory activity in oxazolone-induced delayed type hypersensitivity BALB/c mouse model assessed as ear thickness at 2.5 mg applied topically on ear administered 3 hrs prior to oxazolone challenge on day 7 to 12 post sensitization followed by re-administration of compound on day 13 to 18 without oxazolone challenge measured on day 9 to 15. Type of data set: functional.

For data set [23], the system named is Mus musculus. Description: Antiinflammatory activity in oxazolone-induced delayed type hypersensitivity BALB/c mouse model assessed as ear thickness at 0.5 mg applied topically on ear administered 3 hrs prior to oxazolone challenge on day 7 to 12 post sensitization followed by re-administration of compound on day 13 to 18 without oxazolone challenge measured after day 16. Type of data set: functional.

Data set [24] has as its system Mus musculus. Description: Antiinflammatory activity in oxazolone-induced delayed type hypersensitivity BALB/c mouse model assessed as hyperplastic epidrmis at 0.5 and 2.5 mg applied topically on ear administered 3 hrs prior to oxazolone challenge on day 7 to 12 post sensitization followed by re-administration of compound on day 13 to 18 without oxazolone challenge measured on day 19 by H and E staining based assay. The data set is classed as functional.

Data set [25] relates to Mus musculus. Description: Antiinflammatory activity in oxazolone-induced delayed type hypersensitivity BALB/c mouse model assessed as reduction in edema formation at 0.5 and 2.5 mg applied topically on ear administered 3 hrs prior to oxazolone challenge on day 7 to 12 post sensitization followed by re-administration of compound on day 13 to 18 without oxazolone challenge measured on day 19 by H and E staining based assay. The data set is classed as functional.

For data set [26], the system named is Mus musculus. Description: Antiinflammatory activity in oxazolone-induced delayed type hypersensitivity BALB/c mouse model assessed as effect on ear thickness at 0.5 and 2.5 mg applied topically on ear administered 3 hrs prior to oxazolone challenge on day 7 to 12 post sensitization followed by re-administration of compound on day 13 to 18 without oxazolone challenge measured on day 19 by H and E staining based assay. Type of data set: functional.

The test system of data set [27] is Mus musculus. Description: Antiinflammatory activity in oxazolone-induced delayed type hypersensitivity BALB/c mouse model assessed as effect on ear weight at 0.5 and 2.5 mg applied topically on ear administered 3 hrs prior to oxazolone challenge on day 7 to 12 post sensitization followed by re-administration of compound on day 13 to 18 without oxazolone challenge measured on day 19. The data set is classed as functional.

A short description of data set [28]: as §1. The data set is classed as ADME, organism-based. The following applies: Wistar Han, brain, read-out: Drug uptake.
The nature of data set [29]: Ratio of drug level in brain to plasma in Wistar Han rat at 1 mg/kg, iv after 1 hr. The following applies: read-out: BPR. Type of data set: ADME, organism-based.
In data set [30] the test system is Rattus norvegicus. Description: Toxicity in Wistar Han rat assessed as induction of slight lethargy at 1 mg/kg, iv after 0.25 hrs. Type of data set: organism-based. The following applies: in vivo.
Data set [31] deals with Rattus norvegicus. Description: Toxicity in Wistar Han rat assessed as induction of slight lethargy at 5 mg/kg, iv after 1 hr. Conditions: in vivo. The data set is classed as organism-based.

As for `COC(=O)N1CCN(C(=O)Cc2ccc(Cl)c(Cl)c2)[C@@H]2[C@@H](N3CCCC3)CCC[C@@H]21` [listing 1 of 2 here], affinity in data set [1] was put at a Ki of 252 nM. In addition, the “inhibition (INH)” value in [2] is 23%; in data set [3] it was 27%; in data set [4], 27%; in [5], 51%. For the same compound, the Activity in data set [6] is given as 27.5 mg; in [7], 28.2 mg. In [8], it took a dose of 0.26 mg/kg to reach the 50% effect level (ED50). In [9], the MTC came to 0.06 mg/kg.

As for `COC(=O)N1CCN(C(=O)Cc2ccc(Cl)c(Cl)c2)[C@@H]2[C@@H](N3CC[C@H](O)C3)CCC[C@@H]21.Cl`, the concentration at 0.25 h in data set [10] was found to be 599 ng/mL; in [11] it was 1440 ng/mL. For the same compound, the concentration at 1 h worked out at 128 ng/mL in [12], 669 ng/mL in data set [13] and 74.1 ng/g in data set [15]. In addition, the Drug uptake result in data set [14] was “Bld”. Besides, in data set [16], the Kp at 1 h stood at 0.11. Also, the Activity entry in data set [17] and in [18] was “Non-Toxic” throughout.

With `COC(=O)N1CCN(C(=O)Cc2ccc(Cl)c(Cl)c2)[C@@H]2[C@@H](N3CCCC3)CCC[C@@H]21` [listing 2 of 2 here], the inhibition (as a rule, the share of the control response that was lost under treatment) in data set [19] amounted to 2%. Further, in data set [20], the Activity result was “Dose-dependent effect”. Also, the outcome in data set [21], in data set [23], in data set [26] and in [27] was inactive. Moreover, the result in data set [22], in data set [24] and in data set [25] was Active.

Regarding `COC(=O)N1CCN(C(=O)Cc2ccc(Cl)c(Cl)c2)[C@@H]2[C@@H](N(C)C)CCC[C@@H]21.Cl`, in [10], the concentration at 0.25 h was 355 ng/mL. The concentration at 1 h was 186 ng/mL in [12] and 101 ng/g in [28]. For the same compound, the Kp at 1 h in data set [29] was 0.54. Besides, the Activity result in [30] and in data set [31] was “Toxic” each time.
